Active and inactive are the calls of the source. The calls are words filed in the database; no cut-off is given here.
How the values were obtained:
Histamine H3 receptor [1] = target: T1, Histamine H3 receptor (Homo sapiens, UniProt Q9Y5N1); experiment: Displacement of bodilisant from recombinant human histamine H3 receptor stably transfected in HEK-293T cells membrane at 1 to 10 uM incubated for 60 mins by fluorescence-polarization assay; format: cell membranes; settings: Cell membrane, dose 1-10 µM
T1 sequence (Q9Y5N1 whole entry): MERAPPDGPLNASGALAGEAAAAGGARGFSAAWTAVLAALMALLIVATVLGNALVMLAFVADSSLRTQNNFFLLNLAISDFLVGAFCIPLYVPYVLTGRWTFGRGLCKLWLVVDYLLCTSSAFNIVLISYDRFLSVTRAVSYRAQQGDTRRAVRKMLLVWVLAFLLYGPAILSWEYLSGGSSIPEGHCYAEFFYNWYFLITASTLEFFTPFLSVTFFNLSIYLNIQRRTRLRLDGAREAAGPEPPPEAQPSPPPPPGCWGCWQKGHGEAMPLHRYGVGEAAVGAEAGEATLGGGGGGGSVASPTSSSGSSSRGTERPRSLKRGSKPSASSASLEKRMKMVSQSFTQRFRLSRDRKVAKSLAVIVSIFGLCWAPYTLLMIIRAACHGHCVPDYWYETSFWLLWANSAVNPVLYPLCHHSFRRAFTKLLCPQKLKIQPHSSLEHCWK

Histamine H3 receptor [2] = target: T1, Histamine H3 receptor; experiment: Displacement of [3H]Nalpha-methylhistamine from recombinant human histamine H3 receptor stably transfected in HEK-293T cells membrane incubated for 90 mins by scintillation counting method; format: cell membranes, Cell membrane
Histamine H3 receptor [3] = target: T1, Histamine H3 receptor; experiment: Agonist activity at human H3 receptor expressed in HEK293 cells preincubated for 30 mins followed by [35S]-GTPgammaS addition and measured after 30 mins by liquid scintillation counting method; format: functional, cell-based; settings: time 60.0 min
Histamine H3 receptor [4] = target: T1, Histamine H3 receptor; experiment: Antagonist activity at human H3 receptor expressed in HEK293 cells assessed as reversion of (R)alpha-MeHA induced activity preincubated for 30 mins followed by [35S]-GTPgammaS addition and measured after 30 mins by liquid scintillation counting method; format: functional, cell-based; settings: filed as antagonist, time 60.0 min
Histamine H3 receptor [5] = target: T1, Histamine H3 receptor; experiment: Partial agonist activity at human H3 receptor stably transfected in CHO-DUKX cells assessed as […] by measuring reduction in forskolin level by HitHunter-cAMP assay relative to histamine; format: functional, cell-based
Histamine H3 receptor [6] = target: T1, Histamine H3 receptor; experiment: Antagonist activity at human H3 receptor expressed in CHO cells assessed as decrease in cAMP accumulation by measuring increase in forskolin level incubated for 4 hrs in presence of histamine by CRE/MRE-luciferase reporter gene assay; format: functional, cell-based
Histamine H3 receptor [7] = target: T1, Histamine H3 receptor; experiment: Agonist activity at human H3 receptor expressed in CHO cells assessed as […] by measuring reduction in forskolin level incubated for 4 hrs by CRE/MRE-luciferase reporter gene assay; format: functional, cell-based

`Clc1ccc(CCCOCCCN2CCCCC2)cc1` was tested, and the Activity (Histamine H3 receptor [1]; filed as antagonist) was “Active”.

For `COc1cc(NC2(c3cccc(Cl)c3)C(=O)N(C(C)(C)C)C(=O)C2=Cc2ccccc2)cc(OC)c1OC` (centres undefined), the Ki (Histamine H3 receptor [2]) was 3200 nM, the Activity (Histamine H3 receptor [1]) was “inactive” and the Activity (Histamine H3 receptor [3]) was “inactive”. The Activity (Histamine H3 receptor [4]) was “Active”, the Ratio (Histamine H3 receptor [5]) was 0.14 and the Activity (Histamine H3 receptor [6]) was “inactive”.

`N=C(N)SCCc1cnc[nH]1` [IMETIT] showed an EC50 (Histamine H3 receptor [7]) of 2.9 nM.

`CC1=CC(C)=[N+]2C1=C(c1ccc(OCCCN3CCCCC3)cc1)c1c(C)cc(C)n1[B-]2(F)F` gave a Kd (Histamine H3 receptor [2]) of 1.9 nM.

From ChEMBL document CHEMBL4680206, “Novel pyrrolidinone derivative lacks claimed histamine H receptor stimulation in receptor binding and functional studies” (Eur J Med Chem, 2020)
